# According to US12195427B2, “MASP-2 inhibitors and methods of use” (priority 2018, dated 2025):
# Counter-ions that a name gives are not always drawn.
# Biological target: MASP-2 CCP2-SP (Homo sapiens (Human), UniProt O00187)
# Assay: MASP-2 co-crystallization, X-ray crystallography and structure analysis (H-bonds, van der Waals contacts);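 on Ligand-pharmacophore element distance, pharmacophore element C2: distance from averaged pharmacophore element to bound ligand; missing value means element absent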;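 on Ligand-pharmacophore element distance, pharmacophore element C3: distance from averaged pharmacophore element to bound ligand; missing value means element absent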;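 on Ligand-pharmacophore element distance, pharmacophore element C4: distance from averaged pharmacophore element to bound ligand; missing value means element absent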;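 on Ligand-pharmacophore element distance, pharmacophore element C5: distance from averaged pharmacophore element to bound ligand; missing value means element absent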
# Parameters: van der Waals contact distance, MASP-2 HIS 483 atom CD2 / van der Waals contact distance, MASP-2 HIS 483 atom NE2 / van der Waals contact distance, SER 654 C to compound atom / van der Waals contact distance, SER 654 O to compound atom / van der Waals contact distance, TRP 655 C to compound atom / van der Waals contact distance, MASP-2 GLY 528 atom CA / van der Waals contact distance TRP 655 atom CZ3 / van der Waals contact distance TRP 655 atom N / van der Waals contact distance TRP 655 atom CE3 / van der Waals contact distance GLY 656 atom C / van der Waals contact distance GLY 656 atom CA / van der Waals contact distance GLY 656 atom O / van der Waals contact distance, MASP-2 TYR 607 atom CD1 / van der Waals contact distance, MASP-2 PRO 606 atom O / d(C3,CA1) / d(CA1,N1)2 / d(H4,O1) / d(H4,O2) / d(O1,O2) / d(CA1,O2) / d(CA6,O1) / d(CA6,O2) / d(CA1,C5) / d(O2,H3) / d(N2,C2) / d(CA5,N2) / d(N2,C4) / d(N2,C6) / d(N2,CA3) / d(N2,O3) / d(O4,H2): unit not given beside the values
# Settings: for Ligand-pharmacophore element distance, pharmacophore element C2 / Ligand-pharmacophore element distance, pharmacophore element C3 / Ligand-pharmacophore element distance, pharmacophore element C4 / Ligand-pharmacophore element distance, pharmacophore element C5 / Ligand-pharmacophore element distance, pharmacophore element C6 / Ligand-pharmacophore element distance, pharmacophore element C7 / Ligand-pharmacophore element distance, pharmacophore element CA1 / Ligand-pharmacophore element distance, pharmacophore element CA2 / Ligand-pharmacophore element distance, pharmacophore element CA3 / Ligand-pharmacophore element distance, pharmacophore element CA4 / Ligand-pharmacophore element distance, pharmacophore element CA5 / Ligand-pharmacophore element distance, pharmacophore element CA6: Table A4-1; for d(CA1,O1) / d(CA1,O2) / d(H4,O1) / d(H4,O2) / d(O1,O2) / d(C3,CA1) / d(CA1,N1)2: Table A5-1 pharmacophore: distance between elements, S2/S1 region; for a(CA1, O1, O2) / a(O1, O2, H4) / a(C3, CA1, O1) / a(N1, CA1, O1) b): Table A6-1 pharmacophore angle; for Pharmacophore torsion angle a(H4, O1, O2, H3) / Pharmacophore torsion angle a(H4, O1, O2, N2) / Pharmacophore torsion angle a(O1, H4, O2, CA1) / Pharmacophore torsion angle a(C3, CA1, O1, H4) / Pharmacophore torsion angle a(N1, CA1, O1, H4): Table A7-1; for a(N1, CA1, O1) b): Methyl-amino-pyridine compounds; for van der Waals contact distance TRP 655 atom CE3: MASP-2 TRP 655 CE3, compound atom in line below
# Summary of the method: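 Human MASP-2 CCP2-SP, untagged or 6His-tagged, was expressed in E. coli and crystallized. Crystals were soaked with inhibitor in crystallization solution, flash-cooled in liquid nitrogen, and diffracted with synchrotron X-rays (wavelength 1.0). Structures were solved by molecular replacement from 1Q3X and partially refined.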
# [1] = Table A5-2 pharmacophore distance, S3/S4 region
# [2] = between pharmacophore elements of the bound compound
# [3] = Table A7-2, between pharmacophore elements of the bound compound
# Chain of MASP-2 CCP2-SP (O00187 445-686): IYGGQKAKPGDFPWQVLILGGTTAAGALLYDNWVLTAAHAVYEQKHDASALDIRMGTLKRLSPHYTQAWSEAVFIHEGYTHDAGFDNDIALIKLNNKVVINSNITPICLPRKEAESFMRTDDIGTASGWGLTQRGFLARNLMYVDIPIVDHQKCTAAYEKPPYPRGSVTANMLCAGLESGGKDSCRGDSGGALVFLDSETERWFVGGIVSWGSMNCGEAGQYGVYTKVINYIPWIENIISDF
# Chain of MASP-2 CCP2-SP (O00187 364-432 partner): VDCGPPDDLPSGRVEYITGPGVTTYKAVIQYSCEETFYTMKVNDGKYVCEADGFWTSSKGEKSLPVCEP
structure (smiles),measurement,setting,value
CC(=O)Nc1ccc(CCNC(CCc2ccccc2)C(=O)NC(C)C(=O)NCc2ccc(C(=N)N)cc2)cc1.Cl.Cl (centres unmarked) [1345_1],"Ligand-pharmacophore element distance, pharmacophore element C2",,0
same,"Ligand-pharmacophore element distance, pharmacophore element C3",,0
same,"Ligand-pharmacophore element distance, pharmacophore element C4",,0
same,"Ligand-pharmacophore element distance, pharmacophore element C5",,0
same,"Ligand-pharmacophore element distance, pharmacophore element C6",,0
same,"Ligand-pharmacophore element distance, pharmacophore element C7",,0
same,"Ligand-pharmacophore element distance, pharmacophore element CA1",,0.51
same,"Ligand-pharmacophore element distance, pharmacophore element CA2",,1.2
same,"Ligand-pharmacophore element distance, pharmacophore element CA3",,1.44
same,"Ligand-pharmacophore element distance, pharmacophore element CA4",,0
same,"Ligand-pharmacophore element distance, pharmacophore element CA5",,0
same,"Ligand-pharmacophore element distance, pharmacophore element CA6",,0
same,"d(CA1,O1)",,4.52
same,"d(CA1,O2)",,4.49
same,"d(H4,O1)",,4.08
same,"d(H4,O2)",,3.57
same,"d(O1,O2)",,3.48
same,"d(N2,CA2)",[1],6.14
same,"d(N2,CA3)",[1],5.17
same,"d(N2,O3)",[1],8.75
same,"d(O2,H3)",[1],5.98
same,"d(O2,N2)",[1],2.90
same,"a(CA1, O1, O2)",,112.39
same,"a(O1, O2, H4)",,126.38
same,"a(O1, O2, H3)",Table A6-2 pharmacophore angle,149.79
same,"a(O1, O2, N2)",Table A6-2 pharmacophore angle,134.33
same,"a(O2, N2, CA2)",Table A6-2 pharmacophore angle,153.15
same,"a(O2, N2, CA3)",Table A6-2 pharmacophore angle,153.91
same,"a(O2, N2, O3)",Table A6-2 pharmacophore angle,163.54
same,"Pharmacophore torsion angle a(H4, O1, O2, H3)",[2],39.71
same,"Pharmacophore torsion angle a(H4, O1, O2, N2)",[2],114.36
same,"Pharmacophore torsion angle a(O1, H4, O2, CA1)",[2],−62.84
same,"Pharmacophore torsion angle a(O1, O2, N2, CA2)",[3],138.94
same,"Pharmacophore torsion angle a(O1, O2, N2, CA3)",[3],−27.29
same,"Pharmacophore torsion angle a(O1, O2, N2, O3)",[3],−11.99
Cc1nc(N)ccc1CNC(=O)[C@H](C)NC(=O)[C@H]1C[C@H](Cc2ccccc2Br)CN1.O=C(O)C(F)(F)F.O=C(O)C(F)(F)F [1372_B],"Ligand-pharmacophore element distance, pharmacophore element C2",,0
same,"Ligand-pharmacophore element distance, pharmacophore element C3",,0.1
same,"Ligand-pharmacophore element distance, pharmacophore element C4",,0
same,"Ligand-pharmacophore element distance, pharmacophore element C5",,0
same,"Ligand-pharmacophore element distance, pharmacophore element C6",,1.46
same,"Ligand-pharmacophore element distance, pharmacophore element C7",,0
same,"Ligand-pharmacophore element distance, pharmacophore element CA1",,0.57
same,"Ligand-pharmacophore element distance, pharmacophore element CA2",,1.41
same,"Ligand-pharmacophore element distance, pharmacophore element CA3",,0
same,"Ligand-pharmacophore element distance, pharmacophore element CA4",,0
same,"Ligand-pharmacophore element distance, pharmacophore element CA5",,0
same,"Ligand-pharmacophore element distance, pharmacophore element CA6",,0
same,"d(C3,CA1)",,2.85
same,"d(CA1,N1)2",,1.38
same,"d(CA1,O1)",,4.37
same,"d(CA1,O2)",,4.00
same,"d(H4,O1)",,4.39
same,"d(H4,O2)",,3.91
same,"d(O1,O2)",,3.35
same,"d(N2,C6)",[1],5.56
same,"d(N2,CA2)",[1],6.02
same,"d(O2,H3)",[1],2.23
same,"d(O2,N2)",[1],2.63
same,"a(C3, CA1, O1)",,149.88
same,"a(CA1, O1, O2)",,107.52
same,"a(O1, O2, H4)",,132.88
same,"a(N1, CA1, O1) b)",,174.13
same,"a(O1, O2, H3)",Table A6-2 pharmacophore angle,139.74
same,"a(O1, O2, N2)",Table A6-2 pharmacophore angle,143.19
same,"a(O2, N2, C6)",Table A6-2 pharmacophore angle,115.79
same,"a(O2, N2, CA2)",Table A6-2 pharmacophore angle,157.88
same,"Pharmacophore torsion angle a(C3, CA1, O1, H4)",[2],25.77
same,"Pharmacophore torsion angle a(H4, O1, O2, H3)",[2],99.85
same,"Pharmacophore torsion angle a(H4, O1, O2, N2)",[2],139.62
same,"Pharmacophore torsion angle a(N1, CA1, O1, H4)",[2],4.96
same,"Pharmacophore torsion angle a(O1, H4, O2, CA1)",[2],−82.66
same,"Pharmacophore torsion angle a(O1, O2, N2, C6)",[3],141.41
same,"Pharmacophore torsion angle a(O1, O2, N2, CA2)",[3],109.73
"C[C@H](NC(=O)[C@H](N)CCc1ccccc1)C(=O)NCc1cc(Cl)ccc1O [compound 1031, (R)-2-Amino-N—((S)-1-((5-chloro-2-hydroxybenzyl)amino)-1-oxopropan-2-yl)-4-phenylbutanamide Hydrochloride]",H-bond distance to MASP-2 ARG 630 atom NH1 (second bond),"Table A1 (H-Bonds), ARG 630 NH1",2.83
same,H-bond distance to MASP-2 GLY 656 atom O,"Table A1 (H-Bonds), GLY 656 O",2.67
same,"van der Waals contact distance, MASP-2 HIS 483 atom CD2",Table A2-1,3.57
same,"van der Waals contact distance, MASP-2 HIS 483 atom CE1",Table A2-1,3.62
same,"van der Waals contact distance, MASP-2 HIS 483 atom NE2",Table A2-1,3.17
same,"van der Waals contact distance, MASP-2 PHE 529 atom CE2",Table A2-3,3.75
same,"van der Waals contact distance, MASP-2 TYR 607 atom CD1",Table A2-4,3.85
same,"van der Waals contact distance, MASP-2 amino acid atom to compound atom","Table A2-9 second part, ARG 630, AA atoms N, NE, NH1, Hydrochloride",3.34
same,"van der Waals contact distance, VAL 653 CG1 to compound atom",Table A2-11,3.58
same,"van der Waals contact distance, SER 654 C to compound atom","Table A2-11, Hydrochloride",3.56
same,"van der Waals contact distance, TRP 655 C to compound atom","Table A2-12, Hydrochloride",3.26
same,"van der Waals contact distance, TRP 655 CA to compound atom","Table A2-12, Hydrochloride",3.64
same,van der Waals contact distance GLY 656 atom C,"Table A2-13, MASP-2 GLY 656 C",3.61
same,van der Waals contact distance TRP 655 atom CE3,Table A2-13,3.49
same,van der Waals contact distance TRP 655 atom N,"Table A2-13, MASP-2 TRP 655 N",3.28
"CC(=O)Nc1ccc(CCN[C@H](CCc2ccccc2)C(=O)N[C@@H](C)C(=O)NCc2ccc(N)nc2C)cc1 [compound 1368, (R)-2-((4-Acetamidophenethyl)amino)-N—((S)-1-(((6-amino-2-methylpyridin-3-yl)methyl)amino)-1-oxopropan-2-yl)-4-phenylbutanamide Dihydrochloride]",H-bond distance to MASP-2 ASP 627 atom OD2,"Table A1 (H-Bonds), ASP 627 OD2",3.24
same,H-bond distance to MASP-2 GLY 656 atom N,"Table A1 (H-Bonds), GLY 656 N",3.07
same,H-bond distance to MASP-2 PRO 606 atom O,"Table A1 (H-Bonds), PRO 606 O",3.21
same,H-bond distance to MASP-2 SER 628 atom O,"Table A1 (H-Bonds), SER 628 O",3.16
same,H-bond distance to MASP-2 SER 654 atom O,"Table A1 (H-Bonds), SER 654 O",3.04
same,H-bond distance to MASP-2 SER 657 atom O,"Table A1 (H-Bonds), SER 657 O",2.94
same,"van der Waals contact distance, MASP-2 HIS 483 atom CD2",Table A2-1,3.86
same,"van der Waals contact distance, MASP-2 HIS 483 atom NE2",Table A2-1,3.67
same,"van der Waals contact distance, MASP-2 PHE 529 atom CE2",Table A2-3,3.79
same,"van der Waals contact distance, MASP-2 PHE 529 atom CZ",Table A2-3,3.71
same,"van der Waals contact distance, MASP-2 PRO 606 atom CB",Table A2-4,3.6
same,"van der Waals contact distance, MASP-2 PRO 606 atom O",Table A2-4,3.75
same,"van der Waals contact distance, MASP-2 amino acid atom to compound atom","Table A2-7: SER 628 (CB, O, OG)",3.63
same,"van der Waals contact distance, VAL 653 CG1 to compound atom",Table A2-11,3.32
same,"van der Waals contact distance, SER 654 O to compound atom",Table A2-12,3.85
same,"van der Waals contact distance, TRP 655 CA to compound atom",Table A2-12,3.29
same,van der Waals contact distance TRP 655 atom CE3,Table A2-13,3.52
same,van der Waals contact distance TRP 655 atom CZ3,"Table A2-13, MASP-2 TRP 655 CZ3",3.87
same,"Ligand-pharmacophore element distance, pharmacophore element C2",,0
same,"Ligand-pharmacophore element distance, pharmacophore element C3",,0.16
same,"Ligand-pharmacophore element distance, pharmacophore element C4",,0
same,"Ligand-pharmacophore element distance, pharmacophore element C5",,0
same,"Ligand-pharmacophore element distance, pharmacophore element C6",,0
same,"Ligand-pharmacophore element distance, pharmacophore element C7",,0
same,"Ligand-pharmacophore element distance, pharmacophore element CA1",,0.62
same,"Ligand-pharmacophore element distance, pharmacophore element CA2",,0.95
same,"Ligand-pharmacophore element distance, pharmacophore element CA3",,0
same,"Ligand-pharmacophore element distance, pharmacophore element CA4",,0
same,"Ligand-pharmacophore element distance, pharmacophore element CA5",,2.23
same,"Ligand-pharmacophore element distance, pharmacophore element CA6",,0
same,"d(C3,CA1)",,2.86
same,"d(CA1,N1)2",,1.39
same,"d(CA1,O1)",,4.30
same,"d(CA1,O2)",,8.92
same,"d(H4,O1)",,4.34
same,"d(H4,O2)",,8.84
same,"d(O1,O2)",,7.07
same,"d(CA5,N2)",[1],4.47
same,"d(N2,CA2)",[1],6.36
same,"d(O2,H3)",[1],7.79
same,"d(O2,N2)",[1],4.30
same,"a(C3, CA1, O1)",,149.59
same,"a(CA1, O1, O2)",,151.69
same,"a(O1, O2, H4)",,127.75
same,"a(N1, CA1, O1) b)",,173.57
same,"a(O1, O2, H3)",Table A6-2 pharmacophore angle,119.72
same,"a(O1, O2, N2)",Table A6-2 pharmacophore angle,74.03
same,"a(O2, N2, CA2)",Table A6-2 pharmacophore angle,145.05
same,"Pharmacophore torsion angle a(C3, CA1, O1, H4)",[2],22.95
same,"Pharmacophore torsion angle a(H4, O1, O2, H3)",[2],40.86
same,"Pharmacophore torsion angle a(H4, O1, O2, N2)",[2],68.19
same,"Pharmacophore torsion angle a(N1, CA1, O1, H4)",[2],−2.26
same,"Pharmacophore torsion angle a(O1, H4, O2, CA1)",[2],−74.89
same,"Pharmacophore torsion angle a(O1, O2, N2, CA2)",[3],−100.57
same,"Pharmacophore torsion angle a(O1, O2, N2, CA5)",[3],124.36
